Data from US20240139195A1, “METHODS OF TREATING CHRONIC ACTIVE ANTIBODY-MEDIATED REJECTION USING BTK INHIBITORS” (BeiGene Switzerland GmbH, priority 2021, published 2024).
Entries after “also recorded” stand apart in the source; their conditions may differ.

Experiments:
[1] = test system: donor specific alloantibody (DSA); test: Donor specific alloantibody (DSA) analysis by flow cytometry; assay type: in vivo, Lewis rats; conditions: allogeneic recipients, vs vehicle
Method: (§1) Left kidney transplantation was performed between male F344 and Lewis rats [Vogelbacher R, et al. Nephrology, dialysis, transplantation: official publication of the European Dialysis and Transplant Association—European Renal Association. 2010; 25: 3764-73.]. The average time of cold ischemia time and warm ischemia time was 25 and 40 minutes, respectively. In order to allow the production of alloantibodies, no immunosuppressive agents were used within the first 2 weeks after kidney transplantation.
Spleen lymphocytes of normal F344 rats were extracted using lymphocyte separation medium. Serum samples of allogeneic rats were incubated with spleen lymphocytes at room temperature for 30 minutes. Spleen lymphocytes were washed for three times and then incubated with a fluorescein isothiocyanate (FITC)-labeled anti-rat IgG antibody (BD Biosciences) at room temperature for 30 min. Mean fluorescence intensity (MFI) was determined in order to assess DSA levels by flow cytometry (Beckman DxFLEX, Beckman, Brea, CA) [Zhao D, et al. American journal of transplantation: official journal of the American Society of Transplantation and the American Society of Transplant Surgeons. 2018; 18: 1083-95; Liao T, et al. Frontiers in immunology. […]

renal allografts = test: Histological examination of renal allografts (H&E, PAS, Masson staining) for severity of CAMR; assay type: in vivo, Lewis rats
Method: Left kidney transplantation was performed between male F344 and Lewis rats [Vogelbacher R, et al. Nephrology, dialysis, transplantation: official publication of the European Dialysis and Transplant Association—European Renal Association. 2010; 25: 3764-73.]. […] In order to allow the production of alloantibodies, no immunosuppressive agents were used within the first 2 weeks after kidney transplantation. […] Histological analysis was performed by using H&E, PAS and Masson staining. H&E, PAS and Masson trichome staining were performed as detailed elsewhere[Wang Z, et al. Journal of cellular and molecular medicine. 2017; 21: 2359-69.], which was used to evaluate the severity of CAMR. The diagnostic criteria of CAMR was according to Banff 2017 criteria. Characteristics of CAMR were defined as arterial intimal fibrosis, positive C4d staining in PTC and DSA. Measurement of arteriosclerosis caused by intimal fibrosis was performed for the areas surrounded by the luminal surface and internal elastic lamina of each vessel. The area determined by the internal elastic lamina subtraction of the internal elastic lamina to the luminal area was considered as the intimal area. Quantitative analysis the morphometric change of the kidney sections was performed according to results of two pathologists blinded to the experimental design independently.

[2] = test system: C4d and IgG deposition in allograft kidney; test: Immunofluorescence staining of C4d and IgG deposition in allograft kidney; assay type: in vivo, Lewis rats; conditions: 2 mg/kg
Method: as §1

[3] = test system: T cells, B cells and plasma cells in peripheral blood; test: Flow cytometry of T cells, B cells and plasma cells in rat peripheral blood; assay type: in vivo; conditions: 8 weeks after kidney transplantation
Method: PBMCs were doubly incubated with FITC-conjugated anti-CD45R (2.5 μg/10^6 cells; eBioscience, Thermo Fisher Scientific, USA) and APC-conjugated anti-CD19 (2 μg/10^6 cells; Bioss, China), FITC-conjugated anti-CD45R (2.5 μg/10^6 cells; eBioscience, Thermo Fisher Scientific, USA) and Alexa Fluor 647 (conjugated anti-CD138 (0.1 μg/10^6 cells; Abcam, USA), APC-conjugated anti-CD3 (3 μg/10^6 cells; BioLegend, USA) and FITC-conjugated anti-CD4 (0.5 μg/10^6 cells; BioLegend, USA) as well as APC-conjugated anti-CD3 (3 μg/10^6 cells; BioLegend, USA) and Percp-eFluor710-conjugated anti-CD8 (0.3 μg/10^6 cells; BioLegend, USA), respectively. The percentages of CD45R^+CD19^+B cells, CD45R^−CD138^+ plasma cells, and CD3^+CD4^+ and CD3^+CD8^+ T cells were determined by flow cytometry (BD Accuri C6, BD Biosciences).
In order to investigate the immune state of syngenetic and allogenic rats, flow cytometry was used to test the amounts of T cells, B cells, and plasma cells.

[4] = test system: TNF-α, TGF-β, IL-17A, IL-35, IL-10; test: ELISA of rat serum cytokines; assay type: in vivo; conditions: 12 weeks after kidney transplantation, allogeneic recipients vs vehicle
Method: The levels of rat serum TNF-α, TGF-β, IL-17A, IL-35, IL-10 were quantified by rat TNF-α ELISA kit (MUTISCIENCES; China), rat TGF-β ELISA kit (MUTISCIENCES; China), rat IL-35 ELISA kit (MUTISCIENCES; China), rat IL-17A ELISA kit (MUTISCIENCES; China) and rat IL-10 ELISA kit (MUTISCIENCES; China), respectively. The assays were performed as described in the manufacturer's instructions.
At 12 weeks after kidney transplantation, serum isolated from rat peripheral blood was used to detect the concentration of inflammatory cytokines.

[5] = Renal function assessment (blood creatinine and urea nitrogen) after resection of native right kidney; assay type: in vivo, Lewis rats; conditions: allogeneic recipients, right kidney resected 10 days after transplantation, vs vehicle
Method: Concentrations of rat blood creatinine and urea nitrogen were tested by instructions of manufacturer of the kits (JianCheng, China).
(§2) After the resection of right kidney, the blood concentration of creatinine and urea nitrogen continued to deteriorate and reach the summit at 12 weeks after transplantation.

[6] = Long-term survival of allogeneic kidney transplant recipients; assay type: in vivo, Lewis rats; conditions: right kidney resected 10 days after transplantation, vs vehicle, log-rank P<0.05
From the text: as §2

[7] = test system: T cells, B cells, plasma cells and macrophages in allograft kidneys; conditions: 12 weeks after transplantation
Method: Recipients with phosphate buffered saline alone were considered as the vehicle control. At 4, 8, 12 and 16 weeks, organs were harvested and divided into two parts, which were fixed in paraffin or snap-frozen in N2 and stored at −80° C. Peripheral blood mononuclear cells (PBMCs) were separated from the rat peripheral blood to be used in flow cytometry.
Paraffin-embedded sections (4 m) were incubated with primary antibodies against anti-phospho-BTK (1:100; Santa Cruz, USA), C4d (1:200, BioLegend, USA) CD3 (1:200, BioLegend, USA), CD4 (1:200, BioLegend, USA), CD8 (1:200, BioLegend, USA), CD19 (1:200, Bioss, China), CD138 (1:100, Abcam) and CD68 (1:100, Abcam) overnight at 4° C. in a humidified chamber. The appropriate isotype-matched IgG was used as the negative control. […] Quantitative analysis of positive cells (T cells, B cells, plasma cell and macrophages) and IgG positive area was analyzed by using Image-Pro Plus (Media Cybernetics, Rockville, MD). Quantitative analysis of C4d positive PTC was performed according to outcomes of two independent pathologists blinded to the experimental design.

[8] = after treatment for 10 weeks, 2 mg/kg, vs allograft kidneys

C=CC(=O)N1CCC([C@@H]2CCNc3c(C(N)=O)c(-c4ccc(Oc5ccccc5)cc4)nn32)CC1 [Compound 1, (S)-7-(1-acryloylpiperidin-4-yl)-2-(4-phenoxyphenyl)-4,5,6,7-tetrahydropyrazolo-[1,5-a]pyrimidine-3-carboxamide]
production of DSA ([1]; treatment from second week after transplantation, 8, 12, 16 weeks): significantly reduced; also recorded: prevented further production | level of DSA ([1]; until end of treatment at 16 weeks): relatively low level | lesion area of interstitial fibrosis (PAS and Masson staining) (renal allografts; [8]): significantly ameliorated | lesion area of tubular atrophy (PAS and Masson staining) (renal allografts; [8]): significantly ameliorated | glomerular sclerosis (H&E staining) (renal allografts; allogeneic recipients, 2 mg/kg, vs vehicle): significantly ameliorated | CAMR (fibrous intimal thickening in arteries, C4d deposition in PTC, increase of DSA) (renal allografts; allograft kidney, treatment from second week after transplantation): significantly alleviated | deposition of C4d in peritubular capillaries (PTC) ([2]; allograft kidney): dramatically reduced | positive (lesion) area of IgG ([2]; allograft kidneys after treatment, almost 30% without treatment): less than 10% | effect on T cells (CD3+CD4+, CD3+CD8+) in peripheral blood ([3]; 2 mg/kg): sight effect; also recorded: slight effects | elevation of CD19+CD45R+ B cells in peripheral blood ([3]; 2 mg/kg for 6 weeks): significantly inhibited increases; also recorded: significantly suppressed | elevation of plasma cells in peripheral blood ([3]; 2 mg/kg for 6 weeks): significantly inhibited increases; also recorded: significantly suppressed | secretion of IL-10 (serum) [4]: further increased | secretion of IL-35 (serum) [4]: further increased | secretion of TGF-β (serum) [4]: further increased | serum level of IL-17A [4]: reduce; also recorded: effectively decreased | serum level of TNF-α [4]: reduce; also recorded: effectively decreased | blood creatinine [5]: remarkably inhibited the increases; also recorded: relatively low levels | blood urea nitrogen [5]: remarkably inhibited the increases; also recorded: relatively low levels | survival rate of allogeneic recipients [6]: significantly increased; also recorded: higher | infiltration of B cells in allograft kidney [7]: remarkably reduced; also recorded: significantly reduced | infiltration of T cells in allograft kidney [7]: remarkably reduced; also recorded: significantly reduced | infiltration of macrophages in allograft kidney [7]: remarkably reduced; also recorded: decrease | infiltration of plasma cells in allograft kidney [7]: significantly reduced
